In ChEMBL document CHEMBL1770059, “Identification of chemicals to inhibit the kinase activity of leucine-rich repeat kinase 2 (LRRK2), a Parkinson's disease-associated protein” (Bioorg Med Chem Lett, 2011):

What was measured:
[1] = target: T1, Serine/threonine-protein kinase TAO3 (Homo sapiens) (UniProt Q9H2K8); test: Inhibition of TAO3 assessed as residual activity of enzyme at 25 uM
T1 sequence (whole entry): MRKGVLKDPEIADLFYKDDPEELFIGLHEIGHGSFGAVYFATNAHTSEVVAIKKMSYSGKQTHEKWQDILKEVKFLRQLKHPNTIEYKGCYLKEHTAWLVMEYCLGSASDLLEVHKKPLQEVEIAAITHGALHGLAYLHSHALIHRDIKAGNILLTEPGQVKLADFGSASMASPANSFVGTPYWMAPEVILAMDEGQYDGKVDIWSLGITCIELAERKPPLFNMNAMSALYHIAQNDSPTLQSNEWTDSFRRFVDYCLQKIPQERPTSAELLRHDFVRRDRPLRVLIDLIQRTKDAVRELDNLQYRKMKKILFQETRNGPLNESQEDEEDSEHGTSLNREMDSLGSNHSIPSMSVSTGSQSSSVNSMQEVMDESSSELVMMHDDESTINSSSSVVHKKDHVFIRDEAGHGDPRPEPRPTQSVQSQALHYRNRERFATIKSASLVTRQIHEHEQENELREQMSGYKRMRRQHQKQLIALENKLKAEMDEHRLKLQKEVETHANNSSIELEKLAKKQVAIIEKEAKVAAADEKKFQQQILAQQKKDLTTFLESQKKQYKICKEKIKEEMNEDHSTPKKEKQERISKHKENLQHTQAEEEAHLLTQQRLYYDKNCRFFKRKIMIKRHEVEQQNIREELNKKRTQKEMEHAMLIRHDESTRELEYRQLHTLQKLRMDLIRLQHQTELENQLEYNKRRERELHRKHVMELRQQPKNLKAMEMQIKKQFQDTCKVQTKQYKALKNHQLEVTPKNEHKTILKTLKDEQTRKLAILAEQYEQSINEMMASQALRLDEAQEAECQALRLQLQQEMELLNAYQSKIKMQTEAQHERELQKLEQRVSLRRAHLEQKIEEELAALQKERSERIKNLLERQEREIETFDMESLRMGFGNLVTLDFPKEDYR

[2] = target: T2, Mitogen-activated protein kinase kinase kinase 5 (Homo sapiens) (UniProt Q99683); test: Inhibition of ASK1 assessed as residual activity of enzyme at 25 uM
T2 sequence (whole entry): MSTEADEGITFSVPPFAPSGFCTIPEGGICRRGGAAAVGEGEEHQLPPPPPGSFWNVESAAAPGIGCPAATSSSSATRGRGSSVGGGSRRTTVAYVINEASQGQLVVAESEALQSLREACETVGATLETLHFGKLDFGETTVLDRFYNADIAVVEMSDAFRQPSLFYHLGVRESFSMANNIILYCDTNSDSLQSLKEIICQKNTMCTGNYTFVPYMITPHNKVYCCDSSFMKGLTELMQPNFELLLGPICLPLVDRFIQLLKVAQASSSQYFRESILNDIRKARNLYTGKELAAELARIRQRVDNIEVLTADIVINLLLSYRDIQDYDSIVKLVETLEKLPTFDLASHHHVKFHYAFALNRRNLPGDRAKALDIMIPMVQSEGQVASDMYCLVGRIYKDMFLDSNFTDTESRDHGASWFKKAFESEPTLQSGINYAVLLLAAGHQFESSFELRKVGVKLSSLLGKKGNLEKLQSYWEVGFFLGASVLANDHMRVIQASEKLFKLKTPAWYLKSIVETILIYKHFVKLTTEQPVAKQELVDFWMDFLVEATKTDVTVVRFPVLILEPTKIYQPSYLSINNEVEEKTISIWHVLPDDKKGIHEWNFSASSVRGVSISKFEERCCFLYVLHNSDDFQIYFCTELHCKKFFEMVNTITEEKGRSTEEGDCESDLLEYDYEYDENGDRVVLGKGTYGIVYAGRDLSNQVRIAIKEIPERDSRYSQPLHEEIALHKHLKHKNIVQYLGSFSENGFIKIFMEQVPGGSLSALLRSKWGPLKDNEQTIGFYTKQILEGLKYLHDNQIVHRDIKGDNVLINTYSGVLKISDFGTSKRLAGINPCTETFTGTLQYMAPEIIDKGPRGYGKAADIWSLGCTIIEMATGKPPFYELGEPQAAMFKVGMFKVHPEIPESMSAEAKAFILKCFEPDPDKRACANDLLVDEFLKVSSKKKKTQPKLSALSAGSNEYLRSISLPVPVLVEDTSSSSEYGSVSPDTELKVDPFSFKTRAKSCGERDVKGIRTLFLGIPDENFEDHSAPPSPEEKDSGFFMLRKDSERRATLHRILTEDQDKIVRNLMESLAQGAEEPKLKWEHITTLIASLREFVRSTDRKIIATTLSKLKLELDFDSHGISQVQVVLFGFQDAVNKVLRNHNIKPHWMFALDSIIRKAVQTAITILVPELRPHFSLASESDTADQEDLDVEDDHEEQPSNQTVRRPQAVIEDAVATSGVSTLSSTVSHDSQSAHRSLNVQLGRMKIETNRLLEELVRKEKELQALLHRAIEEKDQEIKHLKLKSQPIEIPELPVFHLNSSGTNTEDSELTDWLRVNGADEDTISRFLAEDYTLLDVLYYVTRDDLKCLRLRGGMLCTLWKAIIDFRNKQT

[3] = test system: Leucine-rich repeat serine/threonine-protein kinase 2 (Homo sapiens), Q5S007 [G2019S]; test: Inhibition of LRRK2 G2019S mutant expressed in mouse SN4741 cells assessed as reduction in hydrogen peroxide-induced neurotoxicity at 10 uM by measuring cell survival after 48 hrs by crystal violet assay relative to control; type: cell-based
[4] = target: Leucine-rich repeat serine/threonine-protein kinase 2 (Homo sapiens, UniProt Q5S007, G2019S); test: Inhibition of purified N-terminal GST-tagged LRRK2 G2019S mutant autophosphorylation activity using myelin basic protein as substrate
[5] = target: Ribosomal protein S6 kinase beta-1 (Homo sapiens) (UniProt P23443); test: Inhibition of p70S6K assessed as residual activity of enzyme at 25 uM
[6] = target: T2, Mitogen-activated protein kinase kinase kinase 5 (Homo sapiens); test: Inhibition of ASK1 assessed as residual activity of enzyme at 10 uM
[7] = test system: Leucine-rich repeat serine/threonine-protein kinase 2 (Homo sapiens), Q5S007 [G2019S]; test: Inhibition of purified N-terminal GST-tagged LRRK2 G2019S mutant assessed as residual activity of enzyme at 10 uM
[8] = test system: Leucine-rich repeat serine/threonine-protein kinase 2 (Homo sapiens), Q5S007 [G2019S]; test: Inhibition of purified N-terminal GST-tagged LRRK2 G2019S mutant assessed as residual activity of enzyme at 25 uM
[9] = target: Ribosomal protein S6 kinase beta-1 (Homo sapiens) (UniProt P23443); test: Inhibition of p70S6K assessed as residual activity of enzyme at 10 uM

Sequence of Leucine-rich repeat serine/threonine-protein kinase 2 (Homo sapiens), Q5S007 [G2019S] (Q5S007 whole entry G2019S): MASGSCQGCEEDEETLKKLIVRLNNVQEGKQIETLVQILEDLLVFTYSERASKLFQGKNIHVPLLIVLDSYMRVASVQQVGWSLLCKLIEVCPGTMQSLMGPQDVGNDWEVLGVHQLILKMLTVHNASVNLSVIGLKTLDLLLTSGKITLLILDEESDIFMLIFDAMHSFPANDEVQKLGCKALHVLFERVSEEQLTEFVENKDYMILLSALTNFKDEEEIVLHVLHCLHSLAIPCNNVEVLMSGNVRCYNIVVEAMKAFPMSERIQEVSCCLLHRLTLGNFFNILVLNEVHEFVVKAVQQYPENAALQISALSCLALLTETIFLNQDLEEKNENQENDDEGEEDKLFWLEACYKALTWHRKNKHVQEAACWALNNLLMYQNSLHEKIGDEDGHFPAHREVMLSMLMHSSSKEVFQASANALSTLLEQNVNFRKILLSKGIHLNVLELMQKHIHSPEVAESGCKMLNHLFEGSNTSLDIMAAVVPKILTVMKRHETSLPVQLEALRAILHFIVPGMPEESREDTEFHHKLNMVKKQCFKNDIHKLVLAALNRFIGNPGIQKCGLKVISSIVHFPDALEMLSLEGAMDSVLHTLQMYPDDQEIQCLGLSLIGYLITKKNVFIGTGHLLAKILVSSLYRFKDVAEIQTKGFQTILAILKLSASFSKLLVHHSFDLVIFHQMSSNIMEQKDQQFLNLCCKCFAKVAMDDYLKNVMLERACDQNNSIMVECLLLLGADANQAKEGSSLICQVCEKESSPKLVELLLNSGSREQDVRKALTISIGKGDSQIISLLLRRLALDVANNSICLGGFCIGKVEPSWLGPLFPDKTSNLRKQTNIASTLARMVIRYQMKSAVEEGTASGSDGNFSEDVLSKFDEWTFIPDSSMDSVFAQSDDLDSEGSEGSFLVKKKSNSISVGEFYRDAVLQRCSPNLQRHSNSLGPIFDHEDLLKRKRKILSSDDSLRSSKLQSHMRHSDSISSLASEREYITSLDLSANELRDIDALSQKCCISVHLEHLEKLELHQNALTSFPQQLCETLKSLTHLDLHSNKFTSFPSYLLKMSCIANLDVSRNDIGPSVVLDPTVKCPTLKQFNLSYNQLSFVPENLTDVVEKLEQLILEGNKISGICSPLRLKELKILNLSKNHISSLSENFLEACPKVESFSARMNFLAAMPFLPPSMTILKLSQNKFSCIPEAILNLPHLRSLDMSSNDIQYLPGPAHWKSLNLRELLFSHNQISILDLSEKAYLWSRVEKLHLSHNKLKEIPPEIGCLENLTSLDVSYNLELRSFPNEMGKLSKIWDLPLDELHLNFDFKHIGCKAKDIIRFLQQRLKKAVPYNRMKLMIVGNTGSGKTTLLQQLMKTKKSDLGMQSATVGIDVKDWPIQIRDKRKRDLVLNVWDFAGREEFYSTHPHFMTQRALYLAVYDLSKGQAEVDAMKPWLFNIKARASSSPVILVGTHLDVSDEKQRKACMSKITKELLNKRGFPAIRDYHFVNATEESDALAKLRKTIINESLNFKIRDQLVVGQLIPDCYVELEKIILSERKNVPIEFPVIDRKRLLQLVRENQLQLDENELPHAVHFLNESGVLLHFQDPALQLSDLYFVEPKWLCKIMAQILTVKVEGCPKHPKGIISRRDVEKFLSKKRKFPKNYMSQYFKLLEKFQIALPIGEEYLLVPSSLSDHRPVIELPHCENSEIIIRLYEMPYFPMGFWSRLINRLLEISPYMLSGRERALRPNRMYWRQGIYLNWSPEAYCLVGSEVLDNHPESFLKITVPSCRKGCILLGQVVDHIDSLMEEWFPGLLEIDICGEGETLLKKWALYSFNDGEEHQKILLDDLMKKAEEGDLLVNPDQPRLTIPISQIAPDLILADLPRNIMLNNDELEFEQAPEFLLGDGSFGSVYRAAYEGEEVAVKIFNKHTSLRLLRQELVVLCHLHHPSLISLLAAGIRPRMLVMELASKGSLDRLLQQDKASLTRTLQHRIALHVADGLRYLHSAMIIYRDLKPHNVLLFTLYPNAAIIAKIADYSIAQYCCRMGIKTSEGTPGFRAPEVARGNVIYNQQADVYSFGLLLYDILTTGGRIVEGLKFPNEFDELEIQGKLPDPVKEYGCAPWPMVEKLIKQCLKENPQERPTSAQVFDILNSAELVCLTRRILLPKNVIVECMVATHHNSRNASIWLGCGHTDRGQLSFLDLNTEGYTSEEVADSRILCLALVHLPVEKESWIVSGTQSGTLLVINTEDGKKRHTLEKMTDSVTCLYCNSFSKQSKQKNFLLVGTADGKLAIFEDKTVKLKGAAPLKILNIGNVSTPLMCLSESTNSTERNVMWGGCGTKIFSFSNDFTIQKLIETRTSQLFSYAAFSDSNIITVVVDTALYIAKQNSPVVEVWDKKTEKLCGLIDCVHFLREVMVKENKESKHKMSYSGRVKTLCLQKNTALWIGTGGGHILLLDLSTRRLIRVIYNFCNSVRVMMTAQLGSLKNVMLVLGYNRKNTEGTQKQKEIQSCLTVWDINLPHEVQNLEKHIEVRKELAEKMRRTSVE
Sequence of Ribosomal protein S6 kinase beta-1 (Homo sapiens) (P23443 whole entry, looked up): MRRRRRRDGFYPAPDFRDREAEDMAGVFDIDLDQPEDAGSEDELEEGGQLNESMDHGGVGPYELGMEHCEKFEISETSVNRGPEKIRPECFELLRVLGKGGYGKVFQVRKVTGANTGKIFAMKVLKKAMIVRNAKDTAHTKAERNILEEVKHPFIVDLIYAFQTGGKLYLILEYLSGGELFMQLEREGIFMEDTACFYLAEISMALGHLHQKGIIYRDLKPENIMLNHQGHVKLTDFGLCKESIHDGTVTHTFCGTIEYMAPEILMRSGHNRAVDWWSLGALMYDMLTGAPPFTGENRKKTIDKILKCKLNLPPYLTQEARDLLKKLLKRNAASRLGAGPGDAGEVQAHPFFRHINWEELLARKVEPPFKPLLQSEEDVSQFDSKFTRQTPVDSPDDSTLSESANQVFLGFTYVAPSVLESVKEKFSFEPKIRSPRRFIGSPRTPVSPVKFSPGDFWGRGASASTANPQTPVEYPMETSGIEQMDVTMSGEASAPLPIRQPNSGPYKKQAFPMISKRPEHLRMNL
Sequence of Leucine-rich repeat serine/threonine-protein kinase 2 (Q5S007 whole entry G2019S): as the sequence (Q5S007 whole entry G2019S) above

Activity [1]: 81%
Activity [2]: 68%
IC50 [4]: 4.1 µM
Activity [5]: 50%
Activity [6]: 94%
Activity [7]: 28%
Activity [8]: 11%
Activity [9]: 67%
SMILES: Cc1cc(N/N=C/c2ccncc2)nc2ccccc12
Activity [3]: 50%
